Measured values as given in patent publication US11242334B2, “Heterocyclic compounds as kinase inhibitors, compositions comprising the heterocyclic compound, and methods of use thereof” (JS INNOPHARM (SHANGHAI) LTD, priority 2017, dated 2022).

Experiments:
Colo205 cell line = assay: Colo205 cell proliferation assay (MTT assay, WST-8 readout); type: cell-based; details: Homo sapiens; IC50 values of growth inhibition in Colo 205 cells; 72 hours
Procedure: Compounds disclosed herein were tested for the inhibition of ERK2 by a Colo205 cell proliferation assay commonly known as MTT assay. In this assay, a complete media was prepared by adding 10% fetal bovine serum to RPMI-1640 medium (Life technology). Colon cancer cells (Colo205 cell line) were added to each of 88 wells of a 96 well plate at a seeding density of 5,000 cells/well/90 μL. The cells were allowed to attach to the plate by incubating at 37° C. for 24 hours. The compound was dissolved in DMSO (SIGMA). A solution of test compound was prepared in complete media by serial dilution to obtain the following concentrations: 500 μM, 150 μM, 50 μM, 15 μM, 5 μM, 1.5 μM, 0.5 μM, 0.15 μM and 0.05 μM. The test compound solution (10 μL) was added to each of 80 cell-containing wells. The final concentrations of the compound were following: 50 μM, 15 μM, 5 μM, 1.5 μM, 0.5 μM, 0.15 μM, 0.05 μM, 0.015 μM and 0.005 μM. The final concentration of DMSO is 0.5%. To the 8 remaining cell-containing wells, only complete media (containing 0.5% DMSO) was added to form a control group in order to measure maximal proliferation. To the remaining 8 empty wells, complete media was added to for a vehicle control group in order to measure background. The plates were incubated at 37° C. for 72 hours. 10 μL WST-8 solution (DOJINDO, Cell Counting KIT-8) was added to each well. The plates were further incubated at 37° C. for 2 hours, and then read for the absorbance using a microplate reader at 450 nm.
The IC50 values of growth inhibition in Colo 205 cells for Compounds disclosed are listed in Table 3, A′: ≤0.5 μM; B′: >0.5 μM and ≤1 μM; C′: >1.0 μM and ≤5 uM; D′: >5 μM.

human ERK2 = target: T1, human ERK2 (Homo sapiens, UniProt P28482); assay: LanthaScreen TR-FRET enzymatic assay, ERK2; details: IC50 values of ERK2 biochemical activity; 5 μM ATP, 400 nM ATF2-GFP substrate
T1 construct: recombinantly expressed as GST-tagged full-length protein purified from E. coli; GST; purchased Invitrogen PV3311; host or cells: E. coli
Procedure: Compounds were tested in a LanthaScreen™ time-resolved fluorescence energy transfer (TR-FRET) enzymatic assay from Invitrogen. The assay used human ERK2 (Mitogen Activated Kinase 1, Invitrogen, Cat. PV3311) recombinantly expressed as GST-tagged full-length protein purified from E. coli and activated in vitro with MAP2K1. The substrate was a recombinant truncated version (residues 19-96) of ATF2 fused with Green Fluorescent Protein (Invitrogen, Cat. PV4445). Test compounds were prepared and diluted in DMSO in 3-fold serial dilutions to 100× of the final testing concentrations. The compounds were then further diluted to 4× by the kinase reaction buffer (Invitrogen, Cat. PV3189). The enzymatic reaction for compound testing was performed in a white 384-well polypropylene plate (Packard, Cat. 6005214) with a total reaction volume of 10 μl containing 20 ng/ml ERK2, 400 nM substrate, and 5 μM ATP that is around its Km. The assay started with loading 2.5 μl of ERK2 diluted in kinase reaction buffer to wells, followed by addition of equal volume of 4× compounds for 15-min incubation at the room temperature for pre-treatment. The enzymatic reaction was initiated by addition of 5 μl of mixture of the substrate and ATP prepared in kinase reaction buffer. After one hour reaction, 10 μl mixture of EDTA (final 10 mM) and terbium-labeled anti-pATF2 (pThr71) antibody (final 2 nM) (Invitrogen, Cat. PV4451) prepared in TR-FRET antibody dilution buffer (Invitrogen, Cat. PV3574) was added to stop the enzymatic reaction and produce TR-FRET signals. After 30 minutes of incubation at room temperature, the plate was read in Tecan Infinite F200 Pro with the following settings: Excitation 340 nm (30)/Emission1 495 nm (10)/Emission2 520 nm (25). The TR-FRET values were dimensionless numbers that were calculated as the ratio of the acceptor ([…]) signal to the donor (Terbium) signal. Percent of control was calculated as the percentage of compound-treated vs 1% DMSO vehicle-treated. The dose-response curves were generated and the ICsos were calculated by nonlinear sigmoid curve fitting using GraphPad Prism.
The IC50 values of ERK2 biochemical activity for the examples disclosed herein are listed in Table 3, A: ≤10 nM; B: >10 nM and ≤50 nM; C: >50 nM and ≤100 nM; D.>100 nM.

T1 sequence (P28482 whole entry): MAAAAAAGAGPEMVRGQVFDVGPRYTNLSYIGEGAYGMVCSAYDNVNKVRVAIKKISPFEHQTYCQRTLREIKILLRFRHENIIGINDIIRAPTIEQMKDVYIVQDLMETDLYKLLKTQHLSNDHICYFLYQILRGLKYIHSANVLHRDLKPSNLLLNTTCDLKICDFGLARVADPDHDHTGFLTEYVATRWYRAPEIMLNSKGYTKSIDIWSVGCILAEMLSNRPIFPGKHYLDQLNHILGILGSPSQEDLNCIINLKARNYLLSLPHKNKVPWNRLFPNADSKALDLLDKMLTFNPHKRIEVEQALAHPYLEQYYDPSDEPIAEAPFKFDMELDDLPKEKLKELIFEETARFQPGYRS

IC50 (Colo205 cell line) [nM]	IC50 (human ERK2) [nM]	Compound
500 to 1000	< 10	O=c1cc(-c2ccc3[nH]nc(C4CCOCC4)c3c2)ccn1[C@H](CO)c1cccc(Cl)c1 [Example 2, (S)-1-(1-(3-chlorophenyl)-2-hydroxyethyl)-4-(3-(tetrahydro-2H-pyran-4-yl)-1H-indazol-5-yl)pyridin-2(1H)-one]
1000 to 5000	10 to 50	Cc1n[nH]c2ccc(-c3ccn([C@H](CO)c4cccc(Cl)c4)c(=O)c3)cc12 [Example 3, (S)-1-(1-(3-chlorophenyl)-2-hydroxyethyl)-4-(3-methyl-1H-indazol-5-yl)pyridin-2(1H)-one]
500 to 1000	< 10	Cc1cc(-c2n[nH]c3ncc(-c4ccn([C@H](CO)c5cccc(Cl)c5)c(=O)c4)cc23)ccn1 [Example 4, (S)-1-(1-(3-chlorophenyl)-2-hydroxyethyl)-4-(3-(2-methylpyridin-4-yl)-1H-pyrazolo[3,4-b]pyridin-5-yl)pyridin-2(1H)-one]
1000 to 5000	10 to 50	CNc1n[nH]c2ccc(-c3ccn([C@H](CO)c4cccc(Cl)c4)c(=O)c3)cc12 [Example 5, (S)-1-(1-(3-chlorophenyl)-2-hydroxyethyl)-4-(3-(methyl-amino)-1H-indazol-5-yl)pyridin-2(1H)-one]
≤ 500	< 10	Cc1cc(-c2n[nH]c3ccc(-c4ccn([C@H](CO)c5cccc(Br)c5)c(=O)c4)cc23)ccn1 [Example 6, (S)-1-(1-(3-bromophenyl)-2-hydroxyethyl)-4-(3-(2-methyl-pyridin-4-yl)-1H-indazol-5-yl)pyridin-2(1H)-one]
1000 to 5000	10 to 50	Cn1nccc1-c1n[nH]c2ccc(-c3ccn([C@H](CO)c4cccc(Cl)c4)c(=O)c3)cc12 [Example 7, (S)-1-(1-(3-chlorophenyl)-2-hydroxyethyl)-4-(3-(1-methyl-1H-pyrazol-5-yl)-1H-indazol-5-yl)pyridin-2(1H)-one]
500 to 1000	< 10	Cc1cc(-c2n[nH]c3ccc(-c4ccn(Cc5cc(F)cc(Br)c5)c(=O)c4)cc23)ccn1 [Example 8, 1-(3-bromo-5-fluorobenzyl)-4-(3-(2-methylpyridin-4-yl)-1H-indazol-5-yl)pyridin-2(1H)-one]
500 to 1000	< 10	Cc1cc(-c2n[nH]c3ccc(-c4ccn([C@H](CO)c5cccc(Cl)c5)c(=O)c4)nc23)ccn1 [Example 9, (S)-1-(1-(3-chlorophenyl)-2-hydroxyethyl)-4-(3-(2-methyl-pyridin-4-yl)-1H-pyrazolo[4,3-b]pyridin-5-yl)pyridin-2(1H)-one]
> 5000	10 to 50	CC(C)Oc1cc(-c2n[nH]c3ccc(-c4ccn(Cc5cc(F)cc(Br)c5)c(=O)c4)cc23)ccn1 [Example 10, 1-(3-bromo-5-fluorobenzyl)-4-(3-(2-isopropoxypyridin-4-yl)-1H-indazol-5-yl)pyridin-2(1H)-one]
> 5000	10 to 50	Nc1n[nH]c2ccc(-c3ccn([C@H](CO)c4cccc(Cl)c4)c(=O)c3)cc12 [Example 11, (S)-4-(3-amino-1H-indazol-5-yl)-1-(1-(3-chlorophenyl)-2-hydroxyethyl)pyridin-2(1H)-one]
1000 to 5000	10 to 50	Cn1nccc1Nc1n[nH]c2ccc(-c3ccn([C@H](CO)c4cccc(Cl)c4)c(=O)c3)cc12 [Example 12, (S)-1-(1-(3-chlorophenyl)-2-hydroxyethyl)-4-(3-((1-methyl-1H-pyrazol-5-yl)amino)-1H-indazol-5-yl)pyridin-2(1H)-one]
500 to 1000	< 10	Cc1cc(-c2n[nH]c3ccc(-c4ccn([C@H](CO)c5cccc(Cl)c5)c(=O)c4)c(F)c23)ccn1 [Example 13, (S)-1-(1-(3-chlorophenyl)-2-hydroxyethyl)-4-(4-fluoro-3-(2-methylpyridin-4-yl)-1H-indazol-5-yl)pyridin-2(1H)-one]
1000 to 5000	10 to 50	Cc1cc(-c2n[nH]c3cc(F)c(-c4ccn([C@H](CO)c5cccc(Cl)c5)c(=O)c4)cc23)ccn1 [Example 14, (S)-1-(1-(3-chlorophenyl)-2-hydroxyethyl)-4-(6-fluoro-3-(2-methylpyridin-4-yl)-1H-indazol-5-yl)pyridin-2(1H)-one]
≤ 500	< 10	Cc1cc(-c2n[nH]c3ccc(-c4ccn([C@H](CO)c5ccc(Cl)c(F)c5)c(=O)c4)cc23)ccn1 [Example 15, (S)-1-(1-(4-chloro-3-fluorophenyl)-2-hydroxyethyl)-4-(3-(2-methylpyridin-4-yl)-1H-indazol-5-yl)pyridin-2(1H)-one]
500 to 1000	< 10	Cc1nn(C)cc1-c1n[nH]c2ccc(-c3ccn([C@H](CO)c4cccc(Cl)c4)c(=O)c3)cc12 [Example 16, (S)-1-(1-(3-chlorophenyl)-2-hydroxyethyl)-4-(3-(1,3-dimethyl-1H-pyrazol-4-yl)-1H-indazol-5-yl)pyridin-2(1H)-one]
500 to 1000	< 10	CC(C)Oc1ccc(-c2n[nH]c3ccc(-c4ccn([C@H](CO)c5cccc(Cl)c5)c(=O)c4)cc23)cn1 [Example 17, (S)-1-(1-(3-chlorophenyl)-2-hydroxyethyl)-4-(3-(6-isopropoxypyridin-3-yl)-1H-indazol-5-yl)pyridin-2(1H)-one]
≤ 500	< 10	Cn1cc(-c2n[nH]c3ccc(-c4ccn([C@H](CO)c5cccc(Cl)c5)c(=O)c4)cc23)cn1 [Example 18, (S)-1-(1-(3-chlorophenyl)-2-hydroxyethyl)-4-(3-(1-methyl-1H-pyrazol-4-yl)-1H-indazol-5-yl)pyridin-2(1H)-one]
1000 to 5000	< 10	CC(C)Oc1cc(-c2n[nH]c3ccc(-c4ccn([C@H](CO)c5cccc(Cl)c5)c(=O)c4)cc23)ccn1 [Example 19, (S)-1-(1-(3-chlorophenyl)-2-hydroxyethyl)-4-(3-(2-isopropoxypyridin-4-yl)-1H-indazol-5-yl)pyridin-2(1H)-one]
1000 to 5000	10 to 50	CC(C)(O)c1ccc(-c2n[nH]c3ccc(-c4ccn([C@H](CO)c5ccc(F)c(Cl)c5)c(=O)c4)cc23)cn1 [Example 20, (S)-1-(1-(3-chloro-4-fluorophenyl)-2-hydroxyethyl)-4-(3-(6-(2-hydroxypropan-2-yl)pyridin-3-yl)-1H-indazol-5-yl)pyridin-2(1H)-one]
1000 to 5000	< 10	CC(C)(O)c1cc(-c2n[nH]c3ccc(-c4ccn([C@H](CO)c5ccc(F)c(Cl)c5)c(=O)c4)cc23)ccn1 [Example 21]
> 5000	10 to 50	O=c1cc(-c2ccc3[nH]ncc3c2)ccn1[C@H](CO)c1cccc(Cl)c1 [Example 22, (S)-1-(1-(3-chlorophenyl)-2-hydroxyethyl)-4-(1H-indazol-5-yl)pyridin-2(1H)-one]
1000 to 5000	50 to 100	CCc1n[nH]c2ccc(-c3ccn([C@H](CO)c4cccc(Cl)c4)c(=O)c3)cc12 [Example 23, (S)-1-(1-(3-chlorophenyl)-2-hydroxyethyl)-4-(3-ethyl-1H-indazol-5-yl)pyridin-2(1H)-one]
